This test deals with T1, CFTR channel (Homo sapiens, UniProt P13569).
T1 construct: results in the phosphorylation and opening of CFTR anion channels; host or cells: human colonic T84 cells
T1 sequence (P13569 whole entry): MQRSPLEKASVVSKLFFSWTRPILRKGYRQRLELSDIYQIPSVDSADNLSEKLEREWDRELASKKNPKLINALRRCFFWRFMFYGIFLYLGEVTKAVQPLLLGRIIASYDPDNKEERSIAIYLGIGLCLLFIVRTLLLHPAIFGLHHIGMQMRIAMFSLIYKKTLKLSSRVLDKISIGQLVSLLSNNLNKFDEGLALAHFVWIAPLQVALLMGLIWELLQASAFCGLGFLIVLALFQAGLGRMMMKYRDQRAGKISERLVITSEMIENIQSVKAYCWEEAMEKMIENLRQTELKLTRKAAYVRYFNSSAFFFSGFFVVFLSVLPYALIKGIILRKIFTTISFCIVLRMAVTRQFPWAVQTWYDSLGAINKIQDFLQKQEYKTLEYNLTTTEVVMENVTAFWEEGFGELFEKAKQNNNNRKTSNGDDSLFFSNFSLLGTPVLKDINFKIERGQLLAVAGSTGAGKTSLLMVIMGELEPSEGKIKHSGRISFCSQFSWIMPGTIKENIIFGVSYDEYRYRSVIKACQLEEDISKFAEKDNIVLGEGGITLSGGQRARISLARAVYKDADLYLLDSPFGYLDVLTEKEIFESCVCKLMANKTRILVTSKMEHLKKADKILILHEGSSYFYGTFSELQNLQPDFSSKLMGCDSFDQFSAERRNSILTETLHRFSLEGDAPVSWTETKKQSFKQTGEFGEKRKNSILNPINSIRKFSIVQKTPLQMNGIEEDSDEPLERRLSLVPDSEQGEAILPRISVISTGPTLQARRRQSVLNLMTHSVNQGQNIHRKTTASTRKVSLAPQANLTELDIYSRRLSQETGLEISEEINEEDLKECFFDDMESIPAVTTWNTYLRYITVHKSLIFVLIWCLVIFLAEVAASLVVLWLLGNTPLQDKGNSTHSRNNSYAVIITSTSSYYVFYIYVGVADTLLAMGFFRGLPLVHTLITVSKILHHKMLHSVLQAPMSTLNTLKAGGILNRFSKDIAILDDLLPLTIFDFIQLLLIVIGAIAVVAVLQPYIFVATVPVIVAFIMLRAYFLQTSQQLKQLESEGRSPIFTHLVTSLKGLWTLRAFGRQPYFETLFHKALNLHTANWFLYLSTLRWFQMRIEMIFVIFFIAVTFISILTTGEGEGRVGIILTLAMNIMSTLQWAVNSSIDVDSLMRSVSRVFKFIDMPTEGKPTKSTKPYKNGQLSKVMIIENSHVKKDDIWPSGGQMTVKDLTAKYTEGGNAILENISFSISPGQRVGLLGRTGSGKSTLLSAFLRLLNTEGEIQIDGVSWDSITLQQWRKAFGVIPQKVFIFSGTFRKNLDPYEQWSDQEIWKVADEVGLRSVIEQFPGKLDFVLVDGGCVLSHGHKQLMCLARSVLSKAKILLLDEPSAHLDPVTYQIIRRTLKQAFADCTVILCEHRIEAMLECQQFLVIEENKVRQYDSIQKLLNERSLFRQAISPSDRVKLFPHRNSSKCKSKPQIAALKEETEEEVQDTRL
The experiment in a line: T84 assay (FLIPR membrane potential, forskolin/IBMX-stimulated CFTR channel activity). The test is classed as cell-based. Particulars: Human colonic T84 cells; 10 μM forskolin + 100 μM IBMX; average of at least 2 runs unless marked n = 1. The method, then:
(§1) For example, Human colonic T84 cells can be acquired from the European Collection of Cell Cultures (ECACC) and grown in standard culture conditions as described by the supplier. On the day before assay 25,000 T84 cells per well are plated into standard black walled, clear bottom 384-well assay plates in standard growth medium consisting of DMEM:F12 with 10% FBS and incubated overnight. On the day of the assay the plates are washed using a standard assay buffer (HBSS with 10 mM Hepes) and incubated for 15 minutes in serum free cell culture medium before the addition of a commercially available membrane potential sensitive fluorescent dye (FLIPR Red membrane potential dye, Molecular Devices Corporation). T84 cells are incubated with the FLIPR Red membrane potential dye for 45 minutes in the presence and absence of test compound before being transferred to a commercially available fluorescence imaging plate reader (FLIPR384, Molecular Devices Corporation). Fluorescence levels are monitored continuously every second for 150 seconds; after an initial 10 second baseline, CFTR channel activity is stimulated through the addition of 10 μM forskolin in the presence of 100 μM of the phosphodiesterase inhibitor iso-butyl-methylxanthine (IBMX). Addition of the forskolin leads to the activation of intracellular adenylyl cylase 1, elevating cAMP levels and results in the phosphorylation and opening of CFTR anion channels. CFTR channel opening causes chloride ion efflux and subsequent depolarization of the cells, which is measured by an increase in fluorescence. CFTR inhibitor compounds prevent cell depolarization and the associated increase in fluorescence.
as §1, with “Human colonic” for “For example, Human colonic”, “T84 cells are acquired from” for “T84 cells can be acquired from”, “(ECACC) and are grown in” for “(ECACC) and grown in”
As to `Oc1c(Br)cc(-c2noc(C(O)(Cc3ccccc3)Cc3ccccc3)n2)cc1Br` [Compound 1, 2,6-dibromo-4-(5-(2-hydroxy-1,3-diphenylpropan-2-yl)-1,2,4-oxadiazol-3-yl)phenol], the IC50 is 3.89 µM.

Take `Oc1c(Br)cc(-c2noc(C(O)(c3cccc(F)c3)c3cccc(F)c3)n2)cc1Br` [Compound 2, 4-(5-(bis(3-fluorophenyl)(hydroxy)methyl)-1,2,4-oxadiazol-3-yl)-2,6-dibromophenol]: the IC50 is 5.04 µM.

For the molecule `COc1cccc(C(O)(c2cccc(OC)c2)c2nc(-c3cc(Br)c(O)c(Br)c3)no2)c1` [Compound 3, 2,6-dibromo-4-(5-(hydroxybis(3-methoxyphenyl)methyl)-1,2,4-oxadiazol-3-yl)phenol], the IC50 came out at 5.47 µM.

On to `Oc1c(Br)cc(-c2noc(C(O)(c3ccc(Cl)cc3)c3ccc(Cl)cc3)n2)cc1Br` [Compound 4, 4-(5-(bis(4-chlorophenyl)(hydroxy)methyl)-1,2,4-oxadiazol-3-yl)-2,6-dibromophenol], for which the IC50 turned out to be 5.63 µM.

As for `Oc1c(Br)cc(-c2noc(C(O)(c3ccccc3)c3ccccc3)n2)cc1Br` [Compound 5, 2,6-dibromo-4-(5-(hydroxydiphenylmethyl)-1,2,4-oxadiazol-3-yl)phenol], the IC50 came out at 5.85 µM.

As for `CC(C)(C)c1ccc(C(O)(c2ccc(C(C)(C)C)cc2)c2nc(-c3cc(Br)c(O)c(Br)c3)no2)cc1` [Compound 6, 4-(5-(bis(4-tert-butylphenyl)(hydroxy)methyl)-1,2,4-oxadiazol-3-yl)-2,6-dibromophenol], the IC50 was 18.8 µM.

Regarding `Oc1c(Br)cc(-c2noc(C(O)(c3ccc4ccccc4c3)c3ccc4ccccc4c3)n2)cc1Br` [Compound 7, 2,6-dibromo-4-(5-(hydroxydinaphthalen-2-ylmethyl)-1,2,4-oxadiazol-3-yl)phenol], the IC50 was 18.7 µM.

`Oc1c(Br)cc(-c2noc(C(O)(c3cccc(Cl)c3)c3cccc(Cl)c3)n2)cc1Br` [Compound 8, 4-(5-(bis(3-chlorophenyl)(hydroxy)methyl)-1,2,4-oxadiazol-3-yl)-2,6-dibromophenol]: the IC50 turned out to be 11.4 µM.

In the case of `COc1cccc(C(O)(c2cccc(OC)c2)c2nc(-c3cc(Cl)c(O)c(Cl)c3)no2)c1` [Compound 9, 2,6-dichloro-4-(5-(hydroxybis(3-methoxyphenyl)methyl)-1,2,4-oxadiazol-3-yl)phenol], the IC50 is 9.65 µM.

Consider `Oc1c(Cl)cc(-c2noc(C(O)(c3ccccc3)c3ccccc3)n2)cc1Cl` [Compound 10, 2,6-dichloro-4-(5-(hydroxydiphenylmethyl)-1,2,4-oxadiazol-3-yl)phenol], for which the IC50 turned out to be 6.94 µM.

`Oc1c(Cl)cc(-c2noc(C(O)(c3ccc(Cl)cc3)c3ccc(Cl)cc3)n2)cc1Cl` [Compound 11, 4-(5-(bis(4-chlorophenyl)(hydroxy)methyl)-1,2,4-oxadiazol-3-yl)-2,6-dichlorophenol]: the IC50 turned out to be 11.1 µM.

On to `CC#CC(O)(C#CC)c1nc(-c2cc(Br)c(O)c(Br)c2)no1` [Compound 12, 2,6-dibromo-4-(5-(4-hydroxyhepta-2,5-diyn-4-yl)-1,2,4-oxadiazol-3-yl)phenol], for which the IC50 worked out at 16.2 µM.

A word on the IC50: it is the concentration that gives 50% inhibition.

Values taken from patent US20090264481A1, “Compounds, Compositions and Methods Comprising Oxadiazole Derivatives” (Institute for OneWorld Health, priority 2008, published 2009).
